This is an account of results in ChEMBL document CHEMBL4765457, “Targeting dual tolerant regions of binding pocket: Discovery of novel morpholine-substituted diarylpyrimidines as potent HIV-1 NNRTIs with significantly improved water solubility” (Eur J Med Chem, 2020).

Data set [1] has as its system Human immunodeficiency virus 1. Put plainly: Antiviral activity against HIV1 3B infected in human MT4 cells assessed as virus-induced cytopathic effect incubated for 5 days by MTT assay. It counts as functional, organism-based. The settings on record: Human immunodeficiency virus 1, 3B, MT4, 120 h.
Data set [2] deals with Human immunodeficiency virus 1. Description: Antiviral activity against HIV1 RES056 infected in human MT4 cells assessed as inhibition of virus-induced cytopathic effect incubated for 5 days by MTT assay. It counts as functional, organism-based. The settings on record: Human immunodeficiency virus 1, RES056, MT4, 120 h.
Data set [3] in a line: Cytotoxicity against human MT4 cells assessed as reduction in cell viability incubated for 5 days by MTT assay. It counts as cell-based. The settings on record: time 5 day.
Data set [4] is described as follows: Selectivity index, ratio of CC50 for human MT4 cells to EC50 for antiviral activity against HIV1 3B infected in human MT4 cells. It counts as toxicity, cell-based. The note with it: read-out: Ratio CC50/EC50.
The nature of data set [5]: Selectivity index, ratio of CC50 for human MT4 cells to EC50 for antiviral activity against HIV1 RES056 infected in human MT4 cells. It counts as toxicity, cell-based. The settings on record: read-out: Ratio CC50/EC50.
For data set [6], the system named is Human immunodeficiency virus 1. Put plainly: Antiviral activity against HIV1 harboring RT L100I mutant infected in human MT4 cells assessed as inhibition of virus-induced cytopathic effect incubated for 5 days by MTT assay. The settings on record: Human immunodeficiency virus 1, MT4, 120 h. It counts as functional, organism-based.
Data set [7] deals with Human immunodeficiency virus 1. Description: Antiviral activity against HIV1 harboring RT K103N mutant infected in human MT4 cells assessed as inhibition of virus-induced cytopathic effect incubated for 5 days by MTT assay. It counts as functional, organism-based. The note with it: Human immunodeficiency virus 1, MT4, 120 h.
Data set [8] has as its system Human immunodeficiency virus 1. Description: Antiviral activity against HIV1 harboring RT Y181C mutant infected in human MT4 cells assessed as inhibition of virus-induced cytopathic effect incubated for 5 days by MTT assay. It counts as functional, organism-based. The settings on record: Human immunodeficiency virus 1, MT4, 120 h.
Data set [9] has as its system Human immunodeficiency virus 1. Put plainly: Antiviral activity against HIV1 harboring RT Y188L mutant infected in human MT4 cells assessed as inhibition of virus-induced cytopathic effect incubated for 5 days by MTT assay. It counts as functional, organism-based. The note with it: Human immunodeficiency virus 1, MT4, 120 h.
Data set [10] relates to Human immunodeficiency virus 1. Put plainly: Antiviral activity against HIV1 harboring RT E138K mutant infected in human MT4 cells assessed as inhibition of virus-induced cytopathic effect incubated for 5 days by MTT assay. It counts as functional, organism-based. The settings on record: Human immunodeficiency virus 1, MT4, 120 h.
Data set [11] has as its system Human immunodeficiency virus 1. Description: Antiviral activity against HIV1 harboring RT F227L/V106Amutant infected in human MT4 cells assessed as inhibition of virus-induced cytopathic effect incubated for 5 days by MTT assay. The note with it: Human immunodeficiency virus 1, MT4, 120 h. It counts as functional, organism-based.
Data set [12] concerns Human immunodeficiency virus 1. Description: Potency index, ratio of nevirapine EC50 to test compound EC50 for antiviral activity against HIV1 harboring K103N mutant infected in human MT4 cells. It counts as functional.
Data set [13] relates to Human immunodeficiency virus 1. Put plainly: Potency index, ratio of lamivudine EC50 to test compound EC50 for antiviral activity against HIV1 harboring K103N mutant infected in human MT4 cells. It counts as functional.
Data set [14] is described as follows: Resistance index, ratio of EC50 for antiviral activity against HIV1 expressing RT L100I mutant infected in human MT4 cells to EC50 for antiviral activity against HIV1 3B infected in human MT4 cells. It counts as functional.
Data set [15] in a line: Resistance index, ratio of EC50 for antiviral activity against HIV1 expressing RT K103N mutant infected in human MT4 cells to EC50 for antiviral activity against HIV1 3B infected in human MT4 cells. It counts as functional.
A short description of data set [16]: Resistance index, ratio of EC50 for antiviral activity against HIV1 expressing RT Y181C mutant infected in human MT4 cells to EC50 for antiviral activity against HIV1 3B infected in human MT4 cells. It counts as functional.
Data set [17] can be described thus: Resistance index, ratio of EC50 for antiviral activity against HIV1 expressing RT Y188L mutant infected in human MT4 cells to EC50 for antiviral activity against HIV1 3B infected in human MT4 cells. It counts as functional.
Data set [18] can be described thus: Resistance index, ratio of EC50 for antiviral activity against HIV1 expressing RT E138K mutant infected in human MT4 cells to EC50 for antiviral activity against HIV1 3B infected in human MT4 cells. It counts as functional.
Data set [19] can be described thus: Resistance index, ratio of EC50 for antiviral activity against HIV1 expressing RT F227L/V106A mutant infected in human MT4 cells to EC50 for antiviral activity against HIV1 3B infected in human MT4 cells. It counts as functional.

SMILES strings stand for the structures. Where only a bound is given, the exact number is not on record here.

For the compound `Cc1cc(C#N)cc(C)c1Oc1nc(NC2CCN(CCN3CCOCC3)CC2)nc2cc(F)ccc12`, the half-maximal effective concentration (EC50) is 241 nM in data set [1]; > 16900 nM in data set [2]; 1240 nM in [6]; 522 nM in data set [7]; 1350 nM in [8]; 2400 nM in [9]. For the same compound, the EC50 in [10] stood at 963 nM; in [11], 2920 nM. Moreover, in [3], the CC50 at 120 h was determined as 16900 nM. Moreover, the values for the selectivity ratio in data set [4] and in data set [5] were 70 and < 1, respectively. For the same compound, the “Ratio EC50” value in data set [12] is 10; in data set [13] it was 8; in [14], 5.1; in [15], 2.2; in data set [16], 5.6; in [17], 10. Further, the “Ratio EC50” value in data set [18] was 4; in data set [19], 12.1.
